Holding throughout (assay type): cell-based
Assay [1] deals with OE19 human esophageal cancer cells. The assay is described as follows: Inhibitory action against proliferation of human esophageal cancer cells (OE19). Conditions: OE19, 72 h, 0E19 cells, RPMI1640 with 10% FBS, 3 days incubation, Cell Counting Kit-8, read-out: concentration of the test substance required to inhibit 50% of cell proliferation (IC50), 0E19. As to the method:
(§1) Human esophageal cancer cells (OE19, OE21 and OE33) were purchased from Dainippon Sumitomo Pharma Co., Ltd. OE19, OE21 or was suspended in RPMI1640 medium (purchased from Sigma) containing 10% FBS. The cell suspension (2×10^4 cells/ml) was dispensed into a 96-well plate (purchased from FALCON; product No. 353075) by 0.1 ml/well, and incubated at 37° C. in a 5% CO2 incubator overnight. After the incubation, 0.1 ml of the test substance diluted with RPMI1640 medium containing 10% FBS was added to each well, which was further incubated for 3 days in the 5% CO2 incubator (37° C.). After the incubation, 10 μl of Cell Counting Kit-8 (purchased from DOJINDO Laboratories) was added to each well, which were incubated for about 2 hours in the 5% CO2 incubator (37° C.). After the incubation, the absorbance of the each well was measured using a plate reader MTP-500 (Corona Electric Co., Ltd) with a measurement wavelength of 450 nm and a control wavelength of 660 nm. A ratio of absorbance (%) of each well with the test substance against the wells without the test substance was determined, and based on this ratio, the concentration of the test substance required to inhibit 50% of cell proliferation (IC50; μM) was determined and the results are shown in Table 1.

The test system of assay [2] is OE33 human esophageal cancer cells. The assay is described as follows: Inhibitory action against proliferation of human esophageal cancer cells (OE33). To be noted: OE33, 72 h, 0E33 cells, RPMI1640 with 10% FBS, 3 days incubation, Cell Counting Kit-8, read-out: concentration of the test substance required to inhibit 50% of cell proliferation (IC50), 0E33. The procedure:
as §1
In general terms: Formazan colour is commonly taken as a measure of viable cells.

In assay [3] the test system is OE21 human esophageal cancer cells. In words: Inhibitory action against proliferation of human esophageal cancer cells (OE21). To be noted: OE21, 72 h, 0E21 cells, RPMI1640 with 10% FBS, 3 days incubation, Cell Counting Kit-8, read-out: concentration of the test substance required to inhibit 50% of cell proliferation (IC50), 0E21. As to the method: as §1

The structures appear in SMILES notation.

`CN1CCC(N(C)C(=O)Nc2cc(Oc3cc(F)c(NC(=O)C4(C(=O)Nc5ccc(F)cc5)CC4)cc3F)ccn2)CC1` [N-(2,5-Difluoro-4-{[2-({[methyl(1-methylpiperidin-4-yl)amino]carbonyl}amino)pyridin-4-yl]oxy}phenyl)-N′-(4-fluorophenyl)cyclopropane-1,1-dicarboxamide]: the IC50 in assay [1] is 2.3 µM; in assay [2], 0.14 µM; in assay [3] it was 1.7 µM.

Regarding `O=C(Nc1cc(Oc2ccc(NC(=O)C3(C(=O)Nc4ccc(F)cc4)CC3)c(F)c2)ccn1)N1CCC1` [N-[4-({2-[(Azetidin-1-ylcarbonyl)amino]pyridin-4-yl}oxy)-2-fluorophenyl]-N′-(4-fluorophenyl)cyclopropane-1,1-dicarboxamide], the values for the IC50 in assay [1], in assay [2] and in assay [3] were 4.2 µM, 0.18 µM and above 10 µM, respectively.

On to `O=C(Nc1cc(Oc2cc(F)c(NC(=O)C3(C(=O)Nc4ccc(F)cc4)CC3)cc2F)ccn1)N1CC(CO)C1` [N-(2,5-Difluoro-4-{[2-({[3-(hydroxymethyl)azetidin-1-yl]carbonyl}amino)pyridin-4-yl]oxy}phenyl)-N′-(4-fluorophenyl)cyclopropane-1,1-dicarboxamide], for which the figures for the IC50 in assay [1], in assay [2] and in assay [3] were 3.2 µM, 0.25 µM and 7.4 µM, respectively.

Take `CN1CCN(C2CCN(C(=O)Nc3cc(Oc4cc(F)c(NC(=O)C5(C(=O)Nc6ccc(F)cc6)CC5)cc4F)ccn3)CC2)CC1` [N-(2,5-Difluoro-4-{[2-({[4-(4-methylpiperazin-1-yl)piperidin-1-yl]carbonyl}amino)pyridin-4-yl]oxy}phenyl)-N′-(4-fluorophenyl)cyclopropane-1,1-dicarboxamide]: the IC50 in assay [1] was found to be 3.5 µM; in assay [2], 0.67 µM; in assay [3] it was 3 µM.

Regarding `O=C(Nc1cc(Oc2cc(F)c(NC(=O)C3(C(=O)Nc4ccc(F)cc4)CC3)cc2F)ccn1)N1CC(O)C1` [N-{2,5-Difluoro-4-[(2-{[(3-hydroxyazetidin-1-yl)carbonyl]amino}pyridin-4-yl)oxy]phenyl}-N′-(4-fluorophenyl)cyclopropane-1,1-dicarboxamide], the IC50 worked out at 5.2 µM in assay [1], 0.24 µM in assay [2] and 6.4 µM in assay [3].

On to `CN1CCN(C2CCN(C(=O)Nc3cc(Oc4ccc(NC(=O)C5(C(=O)Nc6ccc(F)cc6)CC5)c(F)c4)ccn3)CC2)CC1` [N-(2-Fluoro-4-{[2-({[4-(4-methylpiperazin-1-yl)piperidin-1-yl]carbonyl}amino)pyridin-4-yl]oxy}phenyl)-N′-(4-fluorophenyl)cyclopropane-1,1-dicarboxamide], for which the figures for the IC50 in assay [1], in assay [2] and in assay [3] were 3.6 µM, 1.6 µM and 5.5 µM, respectively.

(Values after US7998948B2, “Pharmaceutical composition for treating esophageal cancer” (Eisai R&D Management Co., Ltd., priority 2007, dated 2011).)
